The values that follow come from the OligoGym collection.

“And” between values parts separate entries of the source, which are not always exact repeats. Identical values can stand only once. After the bases stand the sugars from the 5' end (letter, count) and the backbone: PS all phosphorothioate, else s phosphorothioate and o phosphodiester by linkage. Methylation of C is not given here. e = 2'-O-(2-methoxyethyl) (MOE); k = constrained ethyl (cEt); d = 2'-deoxy (DNA)

In this data set the target is KRAS. To be noted: ASO.

Under “A431, 2 µM”, TTAGGAGTCTTTATAG (sugars k3 d10 k3, PS) had a target mRNA inhibition of 30%.
On to GTTTATGCAATGTTAA (sugars k3 d10 k3, PS), for which the target mRNA inhibition (A431, 2 µM) turned out to be 55%.
Same read-out and setting: under “ACCATTCAAAGTTCAC (sugars kkddddddddkekekk, PS)” stands 7%; under “TGATTTGTCAGCAGGA (sugars kkdddddddddkekek, PS)”, 45%; under CTTGATTTGTCAGCAG (sugars k3 d10 k3, PS), 51% and 44%.
Still for that read-out and setting: as for ATTGTGCTGAGCTTGA (sugars k3 d10 k3, PS), the figure is 51%; as for GAAAAGTGTTTATGCA (sugars k3 d10 k3, PS), 60%.
Same read-out and setting: as for AAAAAAAATTAATGTC (sugars k3 d10 k3, PS), the figure is 14%; as for GTAGGGCATTTCTGAT (sugars k3 d10 k3, PS), 14%.
As to TCAACTGCATGCACCA (sugars k3 d10 k3, PS), the target mRNA inhibition (A431, 2 µM) is 52%.
The same measure, in the same setting: as for AATTACTTATGCAGAG (sugars k3 d10 k3, PS), the figure is 44%; as for ACCATTCAAAGTTCAC (sugars k3 d10 k3, PS), 34%.
With TGACTAATAGCAGTGG (sugars k3 d10 k3, PS), the target mRNA inhibition was 64% (A431, 0.037 µM); 58% (A431, 2 µM); 96% and 93% (A431, 5 µM); 53.3% (NCI-H460, 0.037 µM).
Take “ACCATTCAAAGTTCAC (sugars kdddddddddkekeke, PS)”: where the note is “A431, 2 µM”, the target mRNA inhibition came to 15%.
Still for that read-out and setting: under TAATCTTTTAATGTCA (sugars k3 d10 k3, PS) stands 7%; under “TCCATTTATGTGACTA (sugars k3 d9 k3 e1, PS)”, 23%; under “TAGTGATTAGGTCAAA (sugars kkdddddddddkekek, PS)”, 51%.
As to “CCATTTATGTGACTAG (sugars k3 d9 k3 e1, PS)”, the target mRNA inhibition (A431, 0.185 µM) was 28%; the target mRNA inhibition (A431, 0.556 µM) turned out to be 47%; the target mRNA inhibition (A431, 1.667 µM) is 53%; the target mRNA inhibition (A431, 2 µM) is 49%; the target mRNA inhibition (A431, 5 µM) was determined as 66%.
For the sequence TATAATGGTGAATATC (sugars k3 d10 k3, PS), for the setting “A431, 2 µM”, the target mRNA inhibition was determined as 7%.
As to TGTTGAGCTATCCAAA (sugars k3 d10 k3, PS), the target mRNA inhibition (A431, 2 µM) worked out at 37%.
The same measure, in the same setting: as for “TTGATTTGTCAGCAGG (sugars kkkdddddddddkeke, PS)”, the figure is 40%; as for TAAAAAAAAAATTAAT (sugars k3 d10 k3, PS), 1%; as for TAATAATCCCCATTTC (sugars k3 d10 k3, PS), 9%.
Still for that read-out and setting: as for TAATGGTGAATATCTT (sugars k3 d10 k3, PS), the figure is 11%.
Still for that read-out and setting: under GTGAATATCTTCAAAT (sugars k3 d10 k3, PS) stands 0%.
Regarding ACTTATGCAGAGAAAA (sugars k3 d10 k3, PS), the target mRNA inhibition (A431, 2 µM) was 37%.
On to “CCATTCAAAGTTCACA (sugars kkddddddddkekekk, PS)”, for which the target mRNA inhibition is, setting by setting: (A431, 0.185 µM) 0%; (A431, 0.556 µM) 19%; (A431, 1.667 µM) 31%; (A431, 2 µM) 57%; (A431, 5 µM) 39%.
On to CTGAATTAGTCTCCAT (sugars k3 d10 k3, PS), for which the target mRNA inhibition (A431, 2 µM) was determined as 48%.
The same measure, in the same setting: under GGTTAGGGGAATTACA (sugars k3 d10 k3, PS) stands 26%.
In turn, TACTAGTATGCCTTAA (sugars k3 d10 k3, PS) yielded a target mRNA inhibition (A431, 2 µM) of 16%.
Still for that read-out and setting: under “AGTGATTAGGTCAAAT (sugars kddddddddddkekek, PS)” stands 21%.
Same read-out and setting: under CTCTCTATGAAAGCTC (sugars k3 d10 k3, PS) stands 29%; under “CTTGATTTGTCAGCAG (sugars kkkdddddddddkeke, PS)”, 46%; under GCTGTGAAACTCTCTA (sugars k3 d10 k3, PS), 42%.
Take TCATTACTTTTTGACA (sugars k3 d10 k3, PS): the target mRNA inhibition (A431, 2 µM) was determined as 4%.
For “AGTGTGACTCAGTTAA (sugars kkddddddddkekekk, PS)”, under “A431, 2 µM”, the target mRNA inhibition turned out to be 47%.
On the same count and under the same terms, as for ATGACTAATAGCAGTG (sugars k3 d10 k3, PS), the figure is 49%; as for TTGTTTAAAAAAAAAA (sugars k3 d10 k3, PS), 0%.
On the same count and under the same terms, as for “TCCATTTATGTGACTA (sugars kdddddddddkekeke, PS)”, the figure is 15%.
“TGATTTGTCAGCAGGA (sugars k3 d9 k3 e1, PS)” displayed a target mRNA inhibition (A431, 0.185 µM) of 26%; a target mRNA inhibition (A431, 0.556 µM) of 52%; a target mRNA inhibition (A431, 1.667 µM) of 70%; a target mRNA inhibition (A431, 2 µM) of 63%; a target mRNA inhibition (A431, 5 µM) of 80%.
As for TGTACTAGTATGCCTT (sugars k3 d10 k3, PS), the target mRNA inhibition (A431, 0.185 µM) is 18% and 9%; the target mRNA inhibition (A431, 1.667 µM) is 61% and 43%; the target mRNA inhibition (A431, 2 µM) amounted to 66%; the target mRNA inhibition (A431, 5 µM) is 74% and 64%.
As to “AGTGATTAGGTCAAAT (sugars kdddddddddkekeke, PS)”, the target mRNA inhibition (A431, 2 µM) turned out to be 12%.
Still for that read-out and setting: as for “GATTGTGCTGAGCTTG (sugars k3 d9 k3 e1, PS)”, the figure is 30%.
